# Measured values taken from patent publication US20110117055A1, “Methods of Treating Hepatitis C Virus with Oxoacetamide Compounds” (priority 2009, published 2011).
# How the values were obtained:
# [1] = tested on: HCV1a chimeric virus and 2a chimeric virus; test: Combination of viral entry inhibitor with ribavirin; type: cell-based, HCV; details: ribavirin 15 μM
# Description: Varying amounts of each compound were coincubated with a high concentration of ribavirin (15 μM).
# HCV = test: Combination of viral entry inhibitor with HCV protease inhibitor VX-950; type: cell-based; details: fixed ratio based on EC50
# Description: Additional combination studies of Compound 1 and Compound 5 with the HCV NS3 protease inhibitor VX-950 were conducted. Compound 1 and Compound 5 were tested singly and in combination with VX-950. The ratio of the two compounds, based on the compound's EC50, remained fixed across the dosing range. The potential cytotoxicity of individual compounds was assessed with a luminescent ATP-based cell viability assay (Cell Titer-Glo; Promega). Cell culture and luciferase compound assays were performed as previously described in Example 3.
# Compound interactions were quantified by the approach described by Chou and Talalay, relying on the median effect principle and the multiple-drug effect equation. […] Isobolograms were generated for each combination tested and were used to determine the additivity, synergism or antagonism of inhibitor combinations. Combination indices (CI) were determined with Calcusyn (Biosoft) for each experiment at the EC50, EC75, and EC90 of the combination. By convention, a CI of <0.9 was considered synergistic, a CI of ≧0.9 or ≦1.1 was considered additive, and a CI of >1.1 was deemed antagonistic. […] Combination indices (CI) were determined with Calcusyn (Biosoft) for each experiment at the EC50, EC75, and EC90 of the combination. By convention, a CI of <0.9 was considered synergistic, a CI of ≧0.9 or ≦1.1 was considered additive, and a CI of >1.1 was deemed antagonistic.
# [2] = tested on: HCV2aCh (E2:G451R) mutant virus; test: E2:G451R mutant virus, Taqman assay for viral RNA copies; type: cell-based, HCV genotype 2a; details: 0-500 nM; about 27.5 hours after virus exposure
# Description: Two 24-well plates were seeded with 4×10^4 cells/well. The following day, cell culture supernatant was aspirated and cells were exposed to HCV2aCh wild type (black bars) and HCV2aCh (E2:G451R) mutant (blue bars), Approximately 250 μl of cell culture virus was added to each well (˜1×10^4 TCID/well or moi ˜0.25). Immediately after the addition of virus to the well, 2.5 μl of 100× concentration of compound was added to each well—and mixed multiple times with a 100 ul pipet tip—to achieve final compound dilutions: 0 nM, 5 nM, 15 nM, 50 nM, 150 nM, and 500 nM. Compound 5 was tested. Each plate was processed consecutively. After addition of virus and compound the plates were placed in the incubator for ˜3.5 hours (37° C., 5% CO2). Following incubation, the supernatant was replaced with fresh media (˜1 ml/well) and plates were returned to incubator. Twenty-four hours later (˜27.5 hours following virus exposure to the cells), cells were washed once with 1 ml of PBS and then the cells were processed for Taqman analysis.
# [3] = tested on: HCV2aCh (E2:G451R) mutant virus; test: E2:G451R mutant virus, immuno-fluorescence read-out; type: cell-based, HCV genotype 2a
# Description: IF analysis: Following aspiration of supernatant from a 24-well plate, 1 ml of ice cold methanol was added to each well and the plate was stored overnight at −20° C. The following day, methanol was removed and the plates were air-dried at room temperature for about 30 minutes. The plate was then rinsed/rehydrated with two washes of PBS (˜5 minutes/wash). To block non-specific antibody binding, cells were incubated in blocking buffer (1% BSA, 0.2% skim milk in PBS) for 1 hour at room temperature. Primary antibody (mouse anti-HCV Core; Affinity BioReagents, MA1-080) was diluted 1:1000 in PBS+0.1% Tween-20 and incubated overnight at 4° C. on rocker (˜200 μl of antibody/well). The next day, wells were washed with PBS (three washes of 5 minutes each) and then incubated for 30 minutes at room temperature with a secondary antibody: goat anti-mouse_AlexaFluor488 (1:1000 dilution in PBS/Tween; Molecular Probes/Invitrogen #A11001). The cells were then washed with PBS three times (5 minutes each), including once with Hoechst dye (0.4 ug/ml; Molecular Probes/Invitrogen #H3570) to counterstain the nuclei of cells. Immunofluorescence staining was analyzed using 10× objective on a Zeiss fluorescent microscope.
# Jc1-luc virus = test: Luciferase compound activity assay, Jc1-luc virus in Huh7.5.1 cells; type: cell-based, HCV genotype-2a; details: Hepatitis C virus, Huh-7.5.1
# Description: Cell culture. Human hepatoma Huh-7.5.1 cells or Huh7 cells were grown at 37° C. and 5% CO2 in Dulbecco's modification of Eagle's medium supplemented with 2 mM L-glutamine, 1 mM Sodium pyruvate, 1× Non-essential amino acids mix, 100 units/ml penicillin, 100 μg/ml streptomycin, and 10% fetal bovine serum.
# Virus plasmids. The chimeric full-length construct pFL-JC1, a GT2a/2a chimera consisting of structural genes from the J6CF isolate and non-structural genes from the JFH1 isolate, has been described previously. See Backes et al., J. Virol. 2010, 84:5775-89; Schaller et al., J. Virol., 2007, 81:4591-603; Koutsoudakis et al., J. Virol. 2006, 80:5308-20; Pietschmann et al., Proc. Natl. Acad. Sci., 2006, 103:7408-13. The firefly luciferase gene has been inserted to pFL-Jc1 to develop a plamid pFL-Jc1-luc for use as a reporter of viral replication. See Amako et al., J. Virol. 2009, 83:9237-46. Specifically, the pFL-JC1-luc construct can be utilized to develop an infectious HCV cell culture system to test novel HCV inhibitors, including entry inhibitors, in vitro using luciferase expression.
# Preparation of infectious HCV. Jc1-luc or HCV2a/2aChRluc RNA was in vitro transcribed using T7 RiboMAX™ Express Large Scale RNA Production System (Promega). After RNA clean up (Qiagen RNeasy Mini kit), transfection was performed as previously described.
# 400 microliters of a Huh-7.5.1 or Huh7 cell suspension (10^7 cells/ml) was placed in a 0.4-cm cuvette with 10 μg of Jc1-luc or HCV2a/2aChRluc RNA and electroporated (Bio-Rad Gene Pulser System) using a single square wave at 260 V and 25 ms pulse length. The cells were plated in 15-cm tissue culture dishes (Corning) and supernatant was harvested and concentrated using a centrifugal filter (Amicon 100K, Millipore).
# Luciferase compound activity assay. Cell culture and luciferase compound assays were performed as previously described. See Wyles et al., J. Virol. 2007, 81:3005-8; Wyles et al., Antimicrob Agents Chemother. 2009, 53:2660-2; Grünberger et al., J. Infect. Dis. 2008, 197:42-5; Wyles et al., Antimicrob Agents Chemother, 2008, 52:1862-4. Briefly, Huh7.5.1 cells were seeded into 96-well plates at a density of 10,000 cells per well in 100 μl medium. After incubating overnight for attachment, Jc1-luc virus at an MOI 0.01 was added to wells with or without compounds at the specified concentrations. All conditions were run in triplicate. After 24 hours, medium was aspirated and replaced with 100 μl of complete medium containing an identical concentration of compound(s) followed by additional 48 hour incubation. The luciferase assay (Bright-Glo; Promega) was carried out according to the manufacturer's instructions. Luciferase activity was determined using a microplate luminometer (Veritas microplate luminometer; Turner Biosystems). […]
# SR-B1 pathway = details: human subjects; cited from earlier work
smiles,measurement,setting,value
"COc1c(NC(=O)C(=O)c2ccc(OCCN3CCOCC3)c3ccccc23)cc(C(C)(C)C)cc1NS(C)(=O)=O [Compound 5, N-(5-tert-butyl-2-methoxy-3-(methylsulfonamido)phenyl)-2-(4-(2-morpholinoethoxy)naphthalen-1-yl)-2-oxoacetamide]",effect of combination with ribavirin,[1],no antagonistic effect
same,effect of combination with VX-950,HCV,additive to slightly synergistic effects
same,"sensitivity of E2 mutant virus relative to wild-type virus, Taqman assay for viral RNA copies",[2],greater resistance
same,"sensitivity of E2 mutant relative to wild-type virus, immuno-fluorescence",[3],more resistant
same,EC50,Jc1-luc virus,20.2 ± 1.37 nM
same,HDL levels,SR-B1 pathway,raised HDL levels
